The text below walks through data of ChEMBL document CHEMBL1201862, “PubChem BioAssay data set” (2004).

Molecules are shown by their SMILES.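 The compound was tested at five concentrations on cells cultured in 96-well plates, with a 48-hour exposure period. GI50: concentration for 50% inhibition of growth.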 Calls of active or inactive are those of the source. No stated cut-off is given here; in the data, active = GI50 up to about 1.1 µM and inactive = higher.

Among the test systems are ACHN; BT-549; DU-145; EKVX; HT-29; MDA-MB-435; MOLT-4; NCI-H226; NCI-H460; NCI/ADR-RES; OVCAR-3; OVCAR-5; SK-OV-3; SN12C; SNB-19; SR; T47D; UO-31; COLO 205; MDA-MB-231.
What all share (assay): inhibition of tumour cell growth, NCI panel, 48 h

On to `Cc1c2ccccc2c(C)n2c1nc1ccccc12`, for which the GI50 in the test with ACHN is 4.06 µM (inactive); in the test on BT-549, 15.1 µM (inactive); in the test with DU-145, 18.5 µM (inactive); in the test on EKVX, 14 µM (inactive); in the test on HT-29 it was 5.11 µM (inactive); in the test with MDA-MB-435, 6.1 µM (inactive). Besides, the GI50 in the test with MOLT-4 is 2.9 µM (inactive); with NCI-H226, 11.6 µM (inactive); with NCI-H460, 4.1 µM (inactive); with NCI/ADR-RES it was 8.57 µM (inactive); in the test on OVCAR-3 it was 5.41 µM (inactive); in the test with OVCAR-5, 16 µM (inactive). Moreover, the GI50 in the test with SK-OV-3 was 5.96 µM (inactive); in the test with SN12C, 5.2 µM (inactive); in the test with SNB-19, 9.71 µM (inactive); in the test with SR, 6.5 µM (inactive); in the test on T47D it was 17.5 µM (inactive); with UO-31, 5.35 µM (inactive).
In the case of `CCN(CC)C1CCC(C2c3cc4c(cc3OC(N3CCOCC3)C2C)OCO4)CC1` (configuration not stated), the GI50 was 16.7 µM (inactive) with ACHN; 16.9 µM (inactive) with BT-549; 7.98 µM (inactive) with COLO 205; 18.5 µM (inactive) in the test with DU-145; 22.8 µM (inactive) in the test on EKVX; 5.75 µM (inactive) with HT-29. The GI50 in the test on MDA-MB-435 was 6.81 µM (inactive); with MOLT-4 it was 10.1 µM (inactive); in the test with NCI-H460, 16.3 µM (inactive); with NCI/ADR-RES, 27 µM (inactive); with OVCAR-3, 14.7 µM (inactive); in the test with OVCAR-5, 36.4 µM (inactive). In addition, the GI50 with SN12C was > 29.2 µM (inactive); in the test with SNB-19 it was 71.4 µM (inactive); with SR, 23.4 µM (inactive); in the test with T47D, 14.4 µM (inactive); with UO-31, 36.9 µM (inactive).
As to `O=C1c2ccccc2-c2nc(-c3ccncc3)cc3c2c1nc1ccccc13`, the GI50 in the test with ACHN was 8.32 µM (inactive); in the test on BT-549, 40.1 µM (inactive); in the test with COLO 205 it was 22.3 µM (inactive); in the test on DU-145, 14.8 µM (inactive); in the test with EKVX it was 34.2 µM (inactive); in the test on HT-29 it was 24.9 µM (inactive). Also, the GI50 in the test with MDA-MB-231 is > 100 µM (inactive); in the test with MDA-MB-435, 16 µM (inactive); with MOLT-4 it was 2.83 µM (inactive); in the test on NCI-H226 it was 16.6 µM (inactive); in the test with NCI-H460, 10.5 µM (inactive); with NCI/ADR-RES, > 100 µM (inactive). For the same molecule, the GI50 was 1.52 µM (inactive) in the test on OVCAR-3; 18.7 µM (inactive) in the test on OVCAR-5; > 100 µM (inactive) with SK-OV-3; 15.1 µM (inactive) with SN12C; 23.6 µM (inactive) in the test with SNB-19; 2.38 µM (inactive) with SR. Moreover, in the test on UO-31, the GI50 is 9.71 µM (inactive).
Consider `C=C1c2nc3ccccc3n2C=C(c2ccc(Cl)cc2)N1c1ccccc1`, for which the GI50 in the test on ACHN is 12.3 µM (inactive); in the test with BT-549, 6.64 µM (inactive); in the test with COLO 205, 29.6 µM (inactive); with DU-145, 32.5 µM (inactive); with EKVX it was 14.8 µM (inactive); with MDA-MB-231, 27.2 µM (inactive). In addition, the GI50 in the test on MDA-MB-435 is 21 µM (inactive); in the test with MOLT-4, > 100 µM (inactive); in the test on NCI-H226 it was 0.031 µM (active); in the test with NCI-H460 it was 12.4 µM (inactive); in the test on NCI/ADR-RES, 12.2 µM (inactive); in the test with OVCAR-3, 17.2 µM (inactive). For the same molecule, the GI50 is 26.5 µM (inactive) with OVCAR-5; 16.9 µM (inactive) with SK-OV-3; 39.9 µM (inactive) with SN12C; 6.56 µM (inactive) with SNB-19; 5.94 µM (inactive) in the test on SR; 13.4 µM (inactive) in the test with UO-31.
